US20260035367A1 (Celgene Corporation, priority 2021, published 2026)
Read-outs that look alike come from different tables or passages of the source.

Columns and labels:
[1] = target: T1, Recombinant human PKC-theta (His-tagged 362-706) (Homo sapiens, UniProt Q04759); experiment: PKC-theta inhibition assay (HTRF KinEASE kit); type: biochemical; conditions: ATP 6.5 μM, STK substrate 525 nM
T1 construct: Recombinant human PKC-theta (His-tagged 362-706); His
Method: PKC-theta and PKC-delta biochemical activities were measured using the PKC-theta HTRF KinEASEkit kit, according to manufacturer's instructions (Cisbio, catalogue number 61ST1PEJ). Briefly, the kinase buffer component of the kit was supplemented with 10 mM MgCl2, 1 mM DTT and 0.1% Tween 20. […] The streptavidin_XL665 and STK antibody-cryptate detection reagents were mixed according to the manufacturer's instructions. Test compounds were diluted in DMSO in a series of 10 semi-log step doses; 10 nL of each compound dose were dispensed in 384 well plates. […] The reaction was started by addition of the substrate and ATP and incubated at 25° C. for 30 minutes or 20 minutes for the PKC-theta and PKC-delta assays, respectively. The detection reagents were added, and the plate was incubated in the dark for 2 hours. […] The ratio of acceptor and donor emission signals was calculated for each well. Percent inhibition values were calculated from the HTRF ratios at different doses and fitted to a 4-parameter logistic curve to determine IC50 values (see Table 2).

[2] = target: T2, Recombinant human PKC-delta (His-tagged 345-676) (Homo sapiens, UniProt Q05655); experiment: PKC-delta inhibition assay (HTRF KinEASE kit); type: biochemical; conditions: ratio, PKC-theta vs PKC-delta HTRF; for PKC-theta/PKC-delta selectivity (binned): binned A to G
T2 construct: PKC-delta (His-tagged 345-676); His
T2 sequence (Q05655 345-676): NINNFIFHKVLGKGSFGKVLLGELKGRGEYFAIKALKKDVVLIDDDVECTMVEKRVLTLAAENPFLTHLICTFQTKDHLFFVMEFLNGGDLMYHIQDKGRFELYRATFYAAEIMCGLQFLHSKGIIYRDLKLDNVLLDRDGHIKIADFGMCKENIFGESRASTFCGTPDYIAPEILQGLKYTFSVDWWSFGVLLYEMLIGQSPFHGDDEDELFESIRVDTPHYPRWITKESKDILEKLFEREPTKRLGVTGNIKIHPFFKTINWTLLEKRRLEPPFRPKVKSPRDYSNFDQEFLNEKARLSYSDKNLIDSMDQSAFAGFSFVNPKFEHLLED

[3] = system: IL-2 secretion by human effector memory T cells (TEM); experiment: Effector memory T cells IL-2 release assay (CD3/CD28 stimulation, HTRF IL-2 detection); type: cell-based; conditions: 24 h; for IC50: Homo sapiens, T-cell
Method: Test compound-mediated inhibition of NFκB signalling in T cells was assessed by quantification of the IL-2 secretion by human effector memory T cells (TEM) upon treatment and stimulation. Human TEM cells were isolated from buffy coats of healthy donors obtained from the French blood bank.
Finally, 10 doses of test compound, originally prepared in DMSO by serial semi-log step dilution, were also added to cells in triplicate wells. Final DMSO concentration in wells was 0.1% in a total volume of 100 μL complete medium. Plates were incubated for 24 h at 37° C. in 5% CO2 atmosphere. After incubation, cell suspensions were centrifuged at 400×g and culture supernatants were recovered and stored at −80° C. […] IL-2 levels were determined in cell supernatants using an HTRF human IL-2 detection kit (Cisbio, cat #62HIL02PEH).

[4] = binned A to H, read-out: PKC-theta HTRF pIC50 (binned) (converted)
[5] = read-out: PKC-theta HTRF pIC50 (converted)
[6] = binned A to G, read-out: PKC-theta IL2 pIC50 (binned) (converted)
[7] = read-out: PKC-theta IL2 pIC50 (converted)

T1 sequence (Q04759 362-706): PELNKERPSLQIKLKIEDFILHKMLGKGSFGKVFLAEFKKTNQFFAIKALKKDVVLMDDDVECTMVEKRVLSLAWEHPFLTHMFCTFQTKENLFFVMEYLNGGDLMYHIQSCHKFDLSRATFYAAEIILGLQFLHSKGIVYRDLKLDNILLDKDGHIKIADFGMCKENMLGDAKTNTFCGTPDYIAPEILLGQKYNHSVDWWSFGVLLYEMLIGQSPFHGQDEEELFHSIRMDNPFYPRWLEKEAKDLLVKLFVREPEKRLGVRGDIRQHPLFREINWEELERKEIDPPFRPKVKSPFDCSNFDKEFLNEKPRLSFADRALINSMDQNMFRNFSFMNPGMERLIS

Compound | IC50 [1, 4] | IC50 [1, 5] | PKC-theta/PKC-delta selectivity [2] | PKC-theta/PKC-delta selectivity (binned) [2] | IC50 [3, 6] | IC50 [3, 7] | PKC-theta IL2 pIC50 [3] | PKC-theta IL2 pIC50 (binned) ([3]; binned A to G)
C[C@@]1(O)C(=O)Nc2nccc(-c3cc(C(F)(F)F)cc(N4CC[C@H]5OCCN[C@@H]5C4)n3)c21 (single isomer, unassigned) [Example 97] | 100 to 316 nM | 158 nM | 21 | C (a ratio of between 20 and 30) | > 1000 nM | 3980 nM | – | –
C[C@@]1(O)C(=O)Nc2nccc(-c3cc(C(F)(F)F)cc(N4CCNC(CC(F)(F)F)C4)n3)c21 (stereo partly drawn) [Example 125] | 10 to 31.6 nM | 15.8 nM | 13 | D (a ratio of between 10 and 20) | 316 to 1000 nM | 398 nM | – | –
CC1(C)C(=O)Nc2nccc(-c3cccc(C4(CN)COC4)c3)c21 [Example 44] | 100 to 316 nM | 200 nM | 4 | F (a ratio of between 1 and 5) | > 1000 nM | 10000 nM | – | –
CC1(O)C(=O)Nc2nccc(-c3cc(C(F)(F)F)cc(N4CCNCC4)n3)c21 (stereo not drawn) [Example 80] | 3.16 to 10 nM | 6.31 nM | 12 | D (a ratio of between 10 and 20) | 31.6 to 100 nM | 79.4 nM | – | –
C[C@H]1CNCCN1c1cc(-c2ccnc3c2C(C)(C)C(=O)N3)ccn1 [Example 31] | 316 to 1000 nM | 501 nM | 1 | F (a ratio of between 1 and 5) | > 1000 nM | 6310 nM | – | –
CC1(C)C(=O)Nc2ncc(C#N)c(-c3cc(F)cc(N4CCNCC4)c3)c21 [Example 64] | 316 to 1000 nM | 501 nM | 2 | F (a ratio of between 1 and 5) | > 1000 nM | 5010 nM | – | –
O=C1Nc2nccc(-c3cc(F)cc(N4CCNCC4)c3)c2C12CCC2 [Example 35] | 31.6 to 100 nM | 39.8 nM | 3 | F (a ratio of between 1 and 5) | 316 to 1000 nM | 398 nM | – | –
CC1(C)C(=O)Nc2nccc(-c3cccc(N(CC4COC4)C4CCNCC4)c3)c21 [Example 41] | 31.6 to 100 nM | 79.4 nM | 3 | F (a ratio of between 1 and 5) | > 1000 nM | 2000 nM | – | –
O=c1[nH]c2nccc(-c3cccc(N4CCNCC4)c3)c2[nH]1 [Example 2] | 316 to 1000 nM | 501 nM | 2 | F (a ratio of between 1 and 5) | > 1000 nM | 10000 nM | – | –
CC[C@@]1(C)C(=O)Nc2nccc(-c3cc(C(C)(F)F)cc(N4CCCNCC4)n3)c21 (single isomer, unassigned) [Example 206] | 31.6 to 100 nM | 31.6 nM | 23 | C (a ratio of between 20 and 30) | 316 to 1000 nM | 631 nM | – | –
C[C@@H]1CNCCN(c2cc(C(F)(F)F)cc(-c3ccnc4c3C(C)(C)C(=O)N4)n2)C1 [Example 182] | 3.16 to 10 nM | 7.94 nM | 25 | C (a ratio of between 20 and 30) | 100 to 316 nM | 158 nM | – | –
C[C@@H]1CN(c2cc(Cl)cc(-c3ccnc4c3C(C)(O)C(=O)N4)c2)CCN1 (stereo partly drawn) [Example 76] | 31.6 to 100 nM | 50.1 nM | 11 | D (a ratio of between 10 and 20) | 316 to 1000 nM | 794 nM | – | –
C[C@@]1(O)C(=O)Nc2nccc(-c3cc(C(F)(F)F)cc(N4CCNC5CC54)n3)c21 (single isomer, unassigned) [Example 96] | 3.16 to 10 nM | 5.01 nM | 10 | E (a ratio of between 5 and 10) | 100 to 316 nM | 200 nM | – | –
CC[C@H]1CN(c2cc(Cl)cc(-c3ccnc4c3[C@@](C)(OC)C(=O)N4)n2)CCN1 (single isomer, unassigned) [Example 152] | 3.16 to 10 nM | 6.31 nM | 11 | D (a ratio of between 10 and 20) | – | – | 7.1 | D (a measured pIC50 of between 7.0 and 7.5)
C[C@@H]1CN(c2ccc(Cl)c(-c3ccnc4c3[C@](C)(O)C(=O)N4)c2)CCN1 [Example 106] | 316 to 1000 nM | 1000 nM | 10 | D (a ratio of between 10 and 20) | > 1000 nM | 10000 nM | – | –
CC1C(=O)Nc2nccc(-c3cccc(CN(C)C)c3)c21 (stereo not drawn) [Example 22] | 316 to 1000 nM | 501 nM | 1 | F (a ratio of between 1 and 5) | > 1000 nM | 1580 nM | – | –
CC(c1cccc(-c2ccnc3[nH]c(=O)[nH]c23)c1)N(C)C (stereo not drawn) [Example 1] | 316 to 1000 nM | 501 nM | 1 | F (a ratio of between 1 and 5) | > 1000 nM | 10000 nM | – | –
C[C@@]1(O)C(=O)Nc2nccc(-c3cc(C(F)(F)F)cc(N4CCNC(CF)C4)n3)c21 (single isomer, unassigned) [Example 109] | 3.16 to 10 nM | 3.98 nM | 29 | C (a ratio of between 20 and 30) | 316 to 1000 nM | 794 nM | – | –
CCC1(O)C(=O)Nc2nccc(-c3cc(Cl)cc(N4CCN[C@@H](C)C4)n3)c21 (stereo partly drawn) [Example 113] | 1 to 3.16 nM | 3.16 nM | 22 | C (a ratio of between 20 and 30) | 31.6 to 100 nM | 79.4 nM | – | –
CC[C@H]1CN(c2cccc(-c3ccnc4c3C(C)(C)C(=O)N4)c2)CCN1 [Example 51] | 31.6 to 100 nM | 79.4 nM | 3 | F (a ratio of between 1 and 5) | > 1000 nM | 1260 nM | – | –
C[C@@H]1CNCCN1c1cc(F)cc(-c2ccnc3c2C(C)(O)C(=O)N3)c1 (stereo partly drawn) [Example 59] | 3.16 to 10 nM | 5.01 nM | 5 | F (a ratio of between 1 and 5) | 100 to 316 nM | 126 nM | – | –
O=C1Nc2nccc(-c3cc(F)cc(N4CCNCC4)c3)c2C12CCCC2 [Example 36] | 10 to 31.6 nM | 20 nM | 1 | F (a ratio of between 1 and 5) | 100 to 316 nM | 251 nM | – | –
CN(C)Cc1cccc(-c2ccnc3[nH]c(=O)[nH]c23)c1 [Example 3] | 316 to 1000 nM | 794 nM | 1 | F (a ratio of between 1 and 5) | > 1000 nM | 5010 nM | – | –
CC1(F)CNCCN(c2cc(Cl)cc(-c3ccnc4c3[C@](C)(O)C(=O)N4)n2)C1 (single isomer, unassigned) [Example 92] | 3.16 to 10 nM | 7.94 nM | 6 | E (a ratio of between 5 and 10) | 100 to 316 nM | 200 nM | – | –
CC1(C)C(=O)Nc2nccc(-c3cc(C(F)(F)F)cc(N4CCNCC4)n3)c21 [Example 66] | 3.16 to 10 nM | 5.01 nM | 13 | D (a ratio of between 10 and 20) | 31.6 to 100 nM | 79.4 nM | – | –
COC1(C)C(=O)Nc2nccc(-c3cc(F)cc(N4CCNCC4)c3)c21 (stereo not drawn) [Example 57] | 31.6 to 100 nM | 50.1 nM | 6 | E (a ratio of between 5 and 10) | 316 to 1000 nM | 631 nM | – | –
